The subject of assay [1] is noradrenaline uptake. The assay is described as follows: Inhibition of Noradrenaline Uptake in Brain Slices (Procedure 1). Conditions: 3H-noradrenaline 10^-7 M; active if % inhibition at 10^-6 M is at least that of imipramine at 10^-7 M. In kind it is cell-based, rat. The method, then: (§1) Inhibition of 5-Hydroxytryptamine or Noradrenaline Uptake in Brain Slices
Two rates (weighing 170-200 g) are decapitated and the brains rapidly removed and placed in ice-cold Krebs solution. The cerebral cortex on each side of the median line is opened out flat and cut to give two slabs of even thickness. The slabs are weighed and then sliced on a McIlwain tissue chopper. The tissue is sliced twice, the second cutting being at an angle of 45° to the first. The interval of cutting is 0.1 mm. The slices are transferred to a 5 ml conical flask and Krebs solution is added in the proportion 5 ml/g tissue. The slices are dispersed in the solution by sucking up and down in a Pasteur pipette. […]
(§2) The filter papers are placed in scintillation vials and soaked in 4 ml ethanol/methanol (3:1 v/v) for at least 45 minutes before addition of 10 ml liquid scintillator after which the samples are counted in a liquid scintillation counter.
Uptake inhibition is expressed as follows: [formula] […] In this case a dose response experiment is carried out with the test compound and impramine at concentrations of 10^-5 M, 10^-6 M and 10^-7 M. The % inhibition is again calculated in the same way and the results are plotted as % inhibition against log compound concentration. […] The potency ratio compared to imipramine is calculated as: [formula] […]

Assay [2] deals with 5-hydroxytryptamine uptake. The assay is described as follows: Inhibition of 5-Hydroxytryptamine Uptake in Brain Slices (Procedure 1). Format: cell-based, rat. The conditions noted are these: for inhibition at 0.1 µM / inhibition at 1 µM / inhibition at 10 µM: rat cerebral cortex slices, 3H 5-hydroxytryptamine 10^-7 M; for Inhibition of 5-hydroxytryptamine uptake, potency ratio compared with imipramine: IC50-based ratio versus imipramine, rat brain slices; for Potency in 5-hydroxytryptamine tests (in words, versus imipramine): qualitative comparison with the standard inhibitor imipramine. How it is done: as §1
Two rates (weighing 170-200 g) are decapitated and the brains rapidly removed and placed in ice-cold Krebs solution. The cerebral cortex on each side of the median line is opened out flat and cut to give two slabs of even thickness. The slabs are weighed and then sliced on a McIlwain tissue chopper. The tissue is sliced twice, the second cutting being at an angle of 45° to the first. The interval of cutting is 0.1 mm. The slices are transferred to a 5 ml conical flask and Krebs solution is added in the proportion 5 ml/g tissue. The slices are dispersed in the solution by sucking up and down in a Pasteur pipette. When a satisfactory suspension is achieved it is pipetted in 50 μl portions into 25 ml conical flasks containing 4.5 ml chilled Krebs solution. An Eppendorf pipette with the tip cut back to about 1 mm diameter is used. The suspension is kept well mixed at this stage so that each portion taken contains the same amount of tissue (~10 mg). The flasks are gassed with 95% O2 /5% CO2 and sealed with aluminium foil. They are then placed in a water bath at 27° for 15 minutes pre-incubation.
Flasks in groups of four are then each treated by an addition in 0.5 ml. to achieve the following concentrations in the medium. […]
______________________________________
GROUP CONCENTRATION (CONCENTRATION)
A 10^-7 M TEST COMPOUND (10^-5 M)
B 10^-7 M IMIPRAMINE (10^-5 M)
C 10^-7 M IMIPRAMINE (10^-6 M)
D 10^-7 M IMIPRAMINE (10^-7 M)
After 20 minutes incubation the slices are filtered off in filter funnels connected to a vacuum line. Each flask in rinsed with 5 ml Krebs which is also poured through the filter funnel followed by a further 5 ml Krebs. For group F the treatment differs in that ^3 H 5-hydroxytryptamine in 0.5 ml is added immediately before filtration. This gives an estimation of the amount of activity retained by the filter from the solution together with the amount of non-specific binding by the tissue.
as §2
Uptake inhibition is expressed as follows: [formula] […] In this case a dose response experiment is carried out with the test compound and impramine at concentrations of 10^-5 M, 10^-6 M and 10^-7 M. The % inhibition is again calculated in the same way and the results are plotted as % inhibition against log compound concentration. The molar concentration which inhibits uptake by 50% (IC50) is determined. The potency ratio compared to imipramine is calculated as: [formula]

The test system of assay [3] is 5-hydroxytryptamine reuptake. The assay is described as follows: Inhibition of 5-hydroxytryptamine reuptake in rat cortical synaptosomes (Procedure 2). Format: biochemical. Conditions: for Selectivity Ratio (5-HT uptake over NA uptake): from IC50 values of NA and 5-HT uptake; for IC50: 10^-7 M 14C-5-hydroxytryptamine, 37° C., 4 min, pH 7.4, read-out: 5-HT Uptake IC50. The text has this: (§3) Inhibition of 5-hydroxytryptamine and L-noradrenaline reuptake in rat cortical synaptosomes
(§4) "The isolation of nerve endings from brain: An electron microscopic study of cell fragments dervied by homogenisation and centrifugation."
(§5) Test object: Purified rat cortical synaptosomes (P2 B) from 8-10 male albino rats (190-250 g).
Procedure: Rats are stunned and then killed by decapitation. The brain is quickly removed and the cortex excised essentially free of striatum and mid-brain. […] The homogenate of concentration 10% w/v in 0.32 sucrose is centrifuged at an average centrifugal force of 1000×g for 10 minutes and the supernatant is decanted and centrifuged at an average of 10000×g for 20 min to obtain the crude mitochondrial pellet (P2). […] The synaptosomes are then centrifuged in a swing-out rotor at 97 000×g average for 30 min. […] (2 ml/g original tissue). Throughout the procedure, it is essential to maintain the tissue and synaptosomes at […]. Synaptosomes should be used within three hours of preparation. A 100 μl aliquot of this synaptosomal suspension (2.5-3.0 mg protein/ml) is added to the incubation medium (900 μl) which has been preincubated at 37° C. for 5 min. […] All reagents are of `Analar` grade and glass distilled water is used.
The quantity of material prepared per experiment would normally be sufficient to examine the effects of 30 different treatments (e.g. 6 compounds each at 5 concentrations in triplicate). […] The filters are then washed with 2.4 ml incubation medium. The radioactivity retained on the filter is determined by the addition of Instagel (10 ml) (Packard) and subsequent liquid scintillation counting to convert results into dpm. The non-specific binding and passive accumulation of both amines is corrected for by determining uptake in a sodium-free medium. Percentage inhibition of uptake is calculated as [formula] where background dpm is that accumulated in a sodium-free medium.
Assays are run in triplicate, with 2 or 3 control and background determinations inserted randomly. The selectivity ratio is calculated as: [formula]

Assay [4] relates to L-noradrenaline reuptake. The assay is described as follows: Inhibition of L-noradrenaline reuptake in rat cortical synaptosomes (Procedure 2). In kind it is biochemical. Conditions: 10^-7 M 3H-L-noradrenaline, 37° C., 4 min, pH 7.4, read-out: NA Uptake IC50.
Description: as §3
Ref: E. G. Gray and V. P. Whittaker (1962). J. Anat 96, p 79-88.
as §4, §5
Procedure: Rats are stunned and then killed by decapitation. The brain is quickly removed and the cortex excised essentially free of striatum and mid-brain. The tissue is then gently homogenised (10 strokes at 840 rpm) in 0.32 M sucrose. […]
Test compounds may be present in 4 to 6 concentrations depending on previous experience, but normally the range would be 10^-9 M to 10^-6 M for an active compound. The quantity of material prepared per experiment would normally be sufficient to examine the effects of 30 different treatments (e.g. 6 compounds each at 5 concentrations in triplicate). […] The radioactivity retained on the filter is determined by the addition of Instagel (10 ml) (Packard) and subsequent liquid scintillation counting to convert results into dpm. […] Percentage inhibition of uptake is calculated as [formula] where background dpm is that accumulated in a sodium-free medium. […]

The structures appear in SMILES notation. Counter-ions that a name gives are not always drawn.

The results in this text go back to patent US4406903A, “Xanthine derivatives useful as antidepressives” (John Wyeth and Brother Limited, priority 1981, dated 1983).

As to `Cn1c(=O)c2c(ncn2CCCNCCc2c[nH]c3ccccc23)n(C)c1=O` [Example 3, N-[3-theophyllin-7-yl)propyl]tryptamine hydrochloride], in assay [1], the “Inhibition of noradrenaline uptake” value was “INACTIVE”. For the same compound, in assay [2], the inhibition at 0.1 µM is 4%; the inhibition at 1 µM was found to be 43%; testing at 10 µM gave an inhibition of 77%; the “Inhibition of 5-hydroxytryptamine uptake, potency ratio compared with imipramine” value was determined as 0.8. Moreover, the “Potency in 5-hydroxytryptamine tests (in words, versus imipramine)” value in assay [2] is “about the same order of potency as the standard inhibitor imipramine”.

For the compound `Cn1c(=O)c2c(ncn2CCCNCCc2c[nH]c3ccc(O)cc23)n(C)c1=O` [Example 1, 5-hydroxy-N-[3-(theophyllin-7-yl)propyl]tryptamine hydrochloride hemihydrate], in assay [3] (rat cortical synaptosomes), the “Selectivity Ratio (5-HT uptake over NA uptake)” value is greater than 167 and the concentration for half-maximal inhibition (IC50) is 60 nM. In assay [3] (qualitative, 5-HT versus NA uptake), the “Selectivity of action (in words)” value is “very selective in its action”. The “Inhibition of 5-HT uptake (in words)” value in assay [3] (qualitative, rat cortical synaptosomes) is “very potent inhibitor of 5-HT uptake”. The “Inhibition of noradrenaline uptake” value in assay [1] is reported as “INACTIVE”. Moreover, in assay [4], the IC50 is greater than 10000 nM. Also, in assay [2], the inhibition at 0.1 µM turned out to be 44%; the inhibition at 1 µM turned out to be 77%; 10 µM produced 84% inhibition; the “Inhibition of 5-hydroxytryptamine uptake, potency ratio compared with imipramine” value is on record as 4.3. Besides, the “Potency in 5-hydroxytryptamine tests (in words, versus imipramine)” value in assay [2] was “considerably more potent than imipramine”.

For the compound `CN(C)CCCN1c2ccccc2CCc2ccccc21` [imipramine, reference compound], in assay [3] (rat cortical synaptosomes), the “Selectivity Ratio (5-HT uptake over NA uptake)” value was 0.5 and the half-inhibitory concentration (IC50) came out at 100 nM. The IC50 in assay [4] turned out to be 50 nM.

The inhibition is the drop in the measured response relative to a control, in per cent. Higher therefore signals a strong effect. As usually defined, the IC50 is the midpoint of a concentration-inhibition curve.
